Experimental data published in the NIST ThermoML archive (doi:10.1016/j.jct.2005.05.004).

What was measured:
[1] = 298.15 K; 101.33 kPa; Liquid; Vibrating tube method
[2] = refractive index (Na D-line) (dimensionless); details: 298.15 K; 101.33 kPa; Liquid
[3] = xn = mol fraction of the nth substance listed; details: 298.15 K, 101.32 kPa, Liquid, Vibrating tube method
[4] = refractive index (Na D-line) (dimensionless); xn = mol fraction of the nth substance listed; details: 298.15 K, 101.32 kPa, Liquid

CO [methanol]
Details | mass density [kg/m3] | refractive index
[1] | 787.98 | –
[2] | – | 1.3262

CCCO [propan-1-ol]
Details | mass density [kg/m3] | refractive index
[1] | 799.69 | –
[2] | – | 1.3829

Cc1ccccc1 [toluene]
Details | mass density [kg/m3] | refractive index
[1] | 862.28 | –
[2] | – | 1.4938

Cc1ccccc1 [toluene] + CCCO
Details | mass density, [3] [kg/m3] | refractive index, [4]
x1 = 0.0609 | 805.41 | 1.3918
x1 = 0.0969 | 808.53 | 1.397
x1 = 0.1939 | 816.4 | 1.4108
x1 = 0.3036 | 824.3 | 1.4249
x1 = 0.3965 | 830.4 | 1.4349
x1 = 0.4988 | 836.58 | 1.4469
x1 = 0.5524 | 839.64 | 1.4509
x1 = 0.5932 | 841.82 | 1.4533
x1 = 0.692 | 847.02 | 1.466
x1 = 0.77 | 851.01 | 1.473
x1 = 0.9274 | 858.78 | 1.4873
x1 = 0.9343 | 859.08 | 1.488

Cc1ccccc1 [toluene] + CCO
Details | mass density, [3] [kg/m3] | refractive index, [4]
x1 = 0.0476 | 792.25 | 1.3699
x1 = 0.1205 | 801.71 | 1.385
x1 = 0.1948 | 810 | 1.3993
x1 = 0.2994 | 820.14 | 1.4163
x1 = 0.3992 | 828.34 | 1.4311
x1 = 0.4884 | 834.71 | 1.443
x1 = 0.5577 | 839.3 | 1.4518
x1 = 0.5994 | 841.81 | 1.4565
x1 = 0.7159 | 848.36 | 1.4682
x1 = 0.7646 | 850.92 | 1.4732
x1 = 0.8915 | 857.06 | 1.485
x1 = 0.8917 | 857.09 | 1.485

Cc1ccccc1 [toluene] + CO
Details | mass density, [3] [kg/m3] | refractive index, [4]
x1 = 0.0491 | 797.2 | 1.3464
x1 = 0.1058 | 806.2 | 1.366
x1 = 0.199 | 818.1 | 1.3921
x1 = 0.3361 | 831.1 | 1.4215
x1 = 0.4097 | 836.6 | 1.4337
x1 = 0.4501 | 839.2 | 1.4402
x1 = 0.5024 | 842.4 | 1.4478
x1 = 0.5393 | 844.4 | 1.4527
x1 = 0.5818 | 846.6 | 1.4579
x1 = 0.6961 | 851.7 | 1.47
x1 = 0.7764 | 854.8 | 1.4778
x1 = 0.8695 | 858 | 1.485
x1 = 0.9416 | 860.2 | 1.4904
